Drawing on patent publication US9296758B2, “2-quinolinyl-acetic acid derivatives as HIV antiviral compounds” (GILEAD SCIENCES, INC., priority 2010, dated 2016), this text covers EC50 for 17 molecules.

pEC50: −log10 of the molar value.

Broadly, the pEC50 is the EC50 on a negative log10 scale, so that one unit is a factor of ten. High values mean a small EC50, low ones a large EC50.

For the first assay, the system named is HIV-IIIb. Nature of the assay: Test A: Antiviral Assays in MT4 Cells. The format is cell-based. As to conditions: Human immunodeficiency virus 1, IIIB, MT4, 120 h, MT-4 cells infected with HIV-IIIb (0.004 m.o.i.), 5 days of incubation, CellTiter-Glo chemiluminescence readout. The method in brief: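 MT-4 cells pre-infected with HIV-IIIb (0.004 m.o.i.) or mock-infected, 2000 cells per well, were exposed to 10 three-fold serial compound dilutions in quadruplicate in RPMI 1640 with 10% FBS. After 5 days at 37° C, cell viability read by CellTiter-Glo chemiluminescence.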
As for `Cc1cc2nc(C(C)C)ccc2c(-c2ccc3c4c(ccnc24)CCO3)c1[C@H](OC(C)(C)C)C(=O)O` [Compound 46, (S)-2-tert-Butoxy-2-((R)-5-(2,3-dihydropyrano[4,3,2-de]quinolin-7-yl)-2-isopropyl-7-methylquinolin-6-yl)acetic acid], the pEC50 was 7.70.

`Cc1cc2nc(-c3ccncc3)ccc2c(-c2ccc3c4c(ccnc24)CCO3)c1[C@H](OC(C)(C)C)C(=O)O` (atropisomer, axis not shown) [Compound 75, (S)-2-tert-Butoxy-2-((R)-5-(2,3-dihydropyrano[4,3,2-de]quinolin-7-yl)-7-methyl-2-(pyridin-4-yl)quinolin-6-yl)acetic acid]: the pEC50 was 7.42. Still for that read-out and setting: to `Cc1ccc2c(-c3ccc4c5c3CCCN5CCO4)c([C@H](OC(C)(C)C)C(=O)O)c(C)cc2n1` [Compound 103, (2S)-2-tert-butoxy-2-(2,7-dimethyl-5-(3,5,6,7-tetrahydro-2H-[1,4]oxazino[2,3,4-ij]quinolin-8-yl)quinolin-6-yl)acetic acid] belongs 7.60; to `Cc1cc2nc(N(C)C)ccc2c(-c2ccc(Cl)cc2)c1[C@H](OC(C)(C)C)C(=O)O` [Compound 32, (S)-2-tert-Butoxy-2-(5-(4-chlorophenyl)-2-(dimethylamino)-7-methylquinolin-6-yl)acetic acid], 6.97; to `Cc1cc2nc(C(F)(F)F)ccc2c(-c2ccc(Cl)cc2)c1[C@H](OC(C)(C)C)C(=O)O` [Compound 7J, (S)-2-tert-butoxy-2-(5-(4-chlorophenyl)-7-methyl-2-(trifluoromethyl)quinolin-6-yl)acetic acid], 6.80. Same read-out and setting: to `Cc1cc2nc(C(=O)N(C)C)ccc2c(-c2ccc(Cl)cc2)c1[C@H](OC(C)(C)C)C(=O)O` [Compound 16, (S)-2-tert-Butoxy-2-(5-(4-chlorophenyl)-2-(dimethylcarbamoyl)-7-methylquinolin-6-yl)acetic acid] belongs 6.66; to `C=CCCc1ccc2c(-c3ccc4c5c(ccnc35)CCO4)c([C@H](OC(C)(C)C)C(=O)O)c(C)cc2n1` (atropisomer, axis not shown) [Compound 48, (S)-2-((R)-2-(but-3-enyl)-5-(2,3-dihydropyrano[4,3,2-de]quinolin-7-yl)-7-methylquinolin-6-yl)-2-tert-butoxyacetic acid], 7.59. The same measure, in the same setting: the value for `Cc1cc2nc(-n3ccnc3)ccc2c(-c2ccc3c4c(ccnc24)CCO3)c1[C@H](OC(C)(C)C)C(=O)O` [Compound 98, (S)-2-tert-butoxy-2-((R)-5-(2,3-dihydropyrano[4,3,2-de]quinolin-7-yl)-2-(1H-imidazol-1-yl)-7-methylquinolin-6-yl)acetic acid] was 6.60. Consider `Cc1cc2nc(OCc3ccccc3)ccc2c(-c2ccc(Cl)cc2)c1[C@H](OC(C)(C)C)C(=O)O` [Compound 65A, (S)-2-(2-(benzyloxy)-5-(4-chlorophenyl)-7-methylquinolin-6-yl)-2-tert-butoxyacetic acid], for which the pEC50 was 7.07. In turn, `Cc1cc2nc(C3CCCC3)ccc2c(-c2ccc3c4c(ccnc24)CCO3)c1[C@H](OC(C)(C)C)C(=O)O` (atropisomer, axis not shown) [Compound 51, (S)-2-tert-Butoxy-2-((R)-2-cyclopentyl-5-(2,3-dihydropyrano[4,3,2-de]quinolin-7-yl)-7-methylquinolin-6-yl)acetic acid] gave a pEC50 of 7.52.

In the case of `Cc1cc2nc(-c3ccc(Cl)cc3)ccc2c(-c2ccc3c4c(ccnc24)CCO3)c1[C@H](OC(C)(C)C)C(=O)O` (atropisomer, axis not shown) [Compound 56, (S)-2-tert-Butoxy-2-((R)-2-(4-chlorophenyl)-5-(2,3-dihydropyrano[4,3,2-de]quinolin-7-yl)-7-methylquinolin-6-yl)acetic acid], the pEC50 was 7.40.

`Cc1cc2nc(C3CCC3)ccc2c(-c2ccc3c4c(ccnc24)CCO3)c1[C@H](OC(C)(C)C)C(=O)O` (atropisomer, axis not shown) [Compound 47, (S)-2-tert-butoxy-2-((R)-2-cyclobutyl-5-(2,3-dihydropyrano[4,3,2-de]quinolin-7-yl)-7-methylquinolin-6-yl)acetic acid] gave a negative logarithm of the EC50 (pEC50) of 7.85. This pEC50 lies 0.45 log units higher than the previous one. Same read-out and setting: the value for `Cc1cc2nc(-c3cn(C)cn3)ccc2c(-c2ccc(Cl)cc2)c1[C@H](OC(C)(C)C)C(=O)O` [Compound 86, (S)-2-tert-butoxy-2-(5-(4-chlorophenyl)-7-methyl-2-(1-methyl-1H-imidazol-4-yl)quinolin-6-yl)acetic acid] was 7.11; that for `Cc1cc2nc(C#Cc3ccccc3)ccc2c(-c2ccc3c4c(ccnc24)CCO3)c1[C@H](OC(C)(C)C)C(=O)O` (atropisomer, axis not shown) [Compound 40, (S)-2-tert-butoxy-2-((R)-5-(2,3-dihydropyrano[4,3,2-de]quinolin-7-yl)-7-methyl-2-(phenylethynyl)quinolin-6-yl)acetic acid] was 7.29; that for `Cc1cc2nc(-c3ccccc3)ccc2c(-c2ccc3c4c(ccnc24)CCO3)c1[C@H](OC(C)(C)C)C(=O)O` (atropisomer, axis not shown) [Compound 57, (S)-2-tert-Butoxy-2-((R)-5-(2,3-dihydropyrano[4,3,2-de]quinolin-7-yl)-7-methyl-2-phenylquinolin-6-yl)acetic acid] was 7.70.

On to `CCc1ccc2c(-c3ccc(Cl)cc3)c([C@H](OC(C)(C)C)C(=O)O)c(C)cc2n1` [Compound 26, (S)-2-tert-butoxy-2-(5-(4-chlorophenyl)-2-ethyl-7-methylquinolin-6-yl)acetic acid], for which the negative-log EC50 (pEC50) was 7.35.

Staying with this assay, now noted: MT-4 cells infected with HIV-IIIb (0.004 m.o.i.), 5 days of incubation, CellTiter-Glo chemiluminescence readout.
Take `Cc1cccnc1-c1ccc2c(-c3ccc4c5c(ccnc35)CCO4)c([C@H](OC(C)(C)C)C(=O)O)c(C)cc2n1` [Compound 106, (S)-2-tert-Butoxy-2-((R)-5-(2,3-dihydropyrano[4,3,2-de]quinolin-7-yl)-7-methyl-2-(3-methylpyridin-2-yl)quinolin-6-yl)acetic acid]: the pEC50 is 7.60.
